# Source: US20170360781A1, “PHARMACEUTICAL COMPOSITION COMPRISING BICYCLIC NITROGEN-CONTAINING AROMATIC HETEROCYCLIC AMIDE COMPOUND AS ACTIVE INGREDIENT” (Astellas Pharma Inc., priority 2014, published 2017)
# What was measured:
# Format in all cases: in vivo
# [1] = system: WSU-DLCL-2 cells derived from DLBCL; experiment: Anti-tumor test 1 on mice tumor-bearing DLBCL-derived WSU-DLCL-2 cells; details: WSU-DLCL-2, Balb/c nude mice, 8 mg/kg oral once a day for 17 days, final measuring day
# Protocol: (§1) 4 to 5 week old male Balb/c nude mice (CHARLES RIVER LABORATORIES JAPAN, INC.) were injected and implanted, under the skin on the back, with 3×10^6 DB cells or WSU-DLCL-2 cells both derived from DLBCL suspended to a mixed solution of PBS and Matrigel (registered trademark) in 1:1. Dividing into groups was performed when the average tumor volume reached 400 to 500 mm^3, and administering of the test compounds was started. […] The administration was performed once a day for 16 days (DB) or 17 days (WSU-DLCL-2) by oral administration, and the body weight and the tumor diameter were measured twice a week. For calculation of the tumor volume, the formula below was used.
# (§2) [Tumor volume(mm^3)]=[major axis of tumor(mm)]×[minor axis of tumor (mm)]^2×0.5
# (§3) The rate of tumor regression was calculated from the average value of the tumor volume according to the formula below.
# (§4) Rate of tumor regression(%)=(1−average tumor volume in each group on measuring day/average tumor volume in each group when dividing groups)×100
# [2] = system: DB cells derived from DLBCL; experiment: Anti-tumor test 1 on mice tumor-bearing DLBCL-derived DB cells; details: Balb/c nude mice, 8 mg/kg oral once a day for 16 days, final measuring day
# Protocol: as §1, §2, §3, §4
# [3] = system: DB cells derived from DLBCL; experiment: Anti-tumor test 2 on mice tumor-bearing DLBCL-derived DB cells; details: Balb/c nude mice, 8 mg/kg oral once a day for 21 days, final measuring day
# Protocol: 4 to 5 week old male Balb/c nude mice (CHARLES RIVER LABORATORIES JAPAN, INC.) were injected and implanted, under the skin on the back, with 3×10^6 DB cells or SU-DHL-4 cells both derived from DLBCL suspended to a mixed solution of PBS and Matrigel (registered trademark) in 1:1. Dividing into groups was performed when tumor volume reached 100 to 250 mm^3, and administering of the test compounds was started. The test was performed on each of the 5 mice in the solvent group and the compound administered group. By oral administration, 6% cyclodextrin aqueous solution for the solvent group, and 6% cyclodextrin aqueous solution in which the test compound was mixed by the dosage shown in Table 10 for the compound administered group were administered. The administration was performed once a day for 21 days by oral administration, and the body weight and the tumor diameter were measured twice a week. For calculation of the tumor volume, the formula below was used.
# as §2
# (§5) The inhibition rate of tumor growth and the rate of tumor regression were calculated from the average value of the tumor volume according to the formula below.
# (§6) Inhibition rate of tumor growth(%)=(1−average of tumor volume growth in each group/average of tumor volume growth in solvent group)×100
# as §4
# [4] = system: PIK3CA mutation-positive Colo201 cells derived from human colorectal cancer; experiment: Anti-tumor test 2 on mice tumor-bearing human colorectal cancer-derived Colo201 cells; details: Colo201, Balb/c nude mice, 8 mg/kg oral once a day for 21 days, final measuring day
# Protocol: 4 to 5 week old male Balb/c nude mice (CHARLES RIVER LABORATORIES JAPAN, INC.) were injected and implanted, under the skin on the back, with 3×10^6 PIK3CA mutation-positive and BRAF mutation-positive RKO cells, or 3×10^6 PIK3CA mutation-positive Colo201 cells, both derived from human colorectal cancer suspended to a mixed solution of PBS and Matrigel (registered trademark) in 1:1. Dividing into groups was performed when the tumor volume reached 100 to 250 mm^3, and administering of the test compounds was started. The test was performed on each of the 5 mice in the solvent group and the compound administered group. By oral administration, 6% cyclodextrin aqueous solution for the solvent group, and 6% cyclodextrin aqueous solution in which the test compound was mixed by the dosage shown in Table 4 for the compound administered group were administered. The administration was performed once a day for 11 days (RKO) or 21 days (Colo201), and the body weight and the tumor diameter were measured twice a week. For calculation of the tumor volume, the formula below was used.
# (§7) [Tumor volume(mm^3)]=[major axis of tumor(mm)]×[minor axis of tumor(mm)]^2×0.5
# The inhibition rate of tumor growth was calculated from the average value of the tumor volume according to the formula below.
# Inhibition rate of tumor growth(%)=([…]average of tumor volume growth in each group/average of tumor volume growth in solvent group)×100
# [5] = system: Human AML-derived MV-4-11 cells; experiment: Anti-tumor test 2 on tumor-bearing mice transplanted with human AML-derived MV-4-11 cell; details: MV-4-11, NOD/SCID mice, 8 mg/kg oral once a day, 14 days after starting the administration
# Protocol: 4 to 5 week old male NOD/SCID nude mice (CHARLES RIVER LABORATORIES JAPAN, INC.) were injected and implanted, under the skin on the back, with 5×10^6 MV-4-11 cells suspended to a mixed solution of PBS and Matrigel (registered trademark) in 1:1. Administering of the test compounds was started when tumor volume reached 100 to 250 mm^3. The test was performed on each of the 5 mice in the solvent group and the compound administered group. By oral administration, 6% cyclodextrin aqueous solution for the solvent group, and 6% cyclodextrin aqueous solution in which the test compound was mixed by the dosage shown in Table 8 for the compound administered group were administered. The administration was performed once a day by oral administration, and the body weight and the tumor diameter were measured twice a week. For calculation of the tumor volume, the formula below was used.
# as §7, §5, §6, §4
# The anti-tumor effect of Test Compounds A1, B1, C1, and D1 on the final measuring day (14 days after starting the administration) is shown in Table 8.
# [6] = system: PIK3CA mutation-positive Colo201 cells derived from human colorectal cancer; experiment: Anti-tumor test 1 on mice tumor-bearing human colorectal cancer-derived Colo201 cells; details: Colo201, Balb/c nude mice, 8 mg/kg oral once a day for 14 days, final measuring day
# Protocol: 5 to 6 week old male Balb/c nude mice (CHARLES RIVER LABORATORIES JAPAN, INC.) were injected and implanted, under the skin on the back, with 1.5×10^6 PIK3CA mutation-positive and BRAF mutation-positive RKO cells, or 3×10^6 PIK3CA mutation-positive Colo201 cells, both derived from human colorectal cancer suspended to a PBS solution or a mixed solution of PBS and Matrigel (registered trademark) in 1:1. Dividing into groups was performed when the tumor volume reached 100 to 300 mm^3, and administering of the test compounds was started. The test was performed on each of the 5 mice in a solvent group and a compound administered group. By oral administration, 6% cyclodextrin aqueous solution for the solvent group, and 6% cyclodextrin aqueous solution in which the test compound was mixed by 8 mg/kg for the compound administered group were administered. The administration was performed once a day for 10 days (RKO) or 14 days (Colo201), and the body weight and the tumor diameter were measured twice a week. For calculation of the tumor volume, the formula below was used.
# as §7
# The inhibition rate of tumor growth was calculated from the average value of the tumor volume according to the formula below. […]
smiles,measurement,setting,value
"COc1ccc(CN2CCC(c3ccc4[nH]c(C(=O)N5CCN(Cc6ccc(C(F)(F)F)cc6)CC5)nc4c3)CC2)cn1 [Compound A1, (5-{1-[(6-methoxypyridin-3-yl)methyl]piperidin-4-yl}-1H-benzimidazol-2-yl){4-[4-(trifluoromethyl)benzyl]piperazin-1-yl}methanone]",Regression rate,[1],72%
same,Regression rate,[2],67%
same,Regression rate DB,[3],66% regression
same,Inhibition rate Colo201,[4],53%
same,Rate of tumor regression,[5],70% regression
same,Inhibition rate of tumor growth,[6],60%
